Laboratory results reported in patent US10238658B2, “1-pyrazolyl-3-(4-((2-anilinopyrimidin-4-yl) oxy) napththalen-1-yl) ureas as p38 MAP kinase inhibitors” (Respivert Limited, priority 2011, dated 2019).

Experiments:
IL-8 [1] = test: LPS-induced IL-8 release in d-U937 cells; type: cell-based; details: Homo sapiens, dU937, dU937 cells
Experimental: (§1) U937 cells, a human monocytic cell line, were differentiated into macrophage-type cells by incubation with PMA (100 ng/mL) for 48 to 72 hr. Cells were pre-incubated with final concentrations of test compound for 2 hr and were then stimulated with LPS (0.1 μg/mL; from E. Coli: O111:B4, Sigma) for 4 hr. The supernatant was collected for determination of TNFα and IL-8 concentrations by sandwich ELISA (Duo-set, R&D systems). […] The relative 50% effective concentration (REC50) was determined from the resultant concentration-response curve. The inhibition of IL-8 production was calculated at each concentration of test compound by comparison with vehicle control.

ICAM-1 = test: Poly I:C-induced ICAM-1 expression in BEAS2B cells; type: cell-based; details: Homo sapiens, BEAS-2B, read-out: PolyIC/ICAM1 IC50 (BEAS2B)
Experimental: Poly I:C was used in these studies as a simple, RNA virus mimic. Poly I:C-Oligofectamine mixture (1 μg/mL Poly I:C, ±2% Oligofectamine, 25 μL; Invivogen Ltd., San Diego, Calif., and Invitrogen, Carlsbad, Calif., respectively) was transfected into BEAS2B cells (human bronchial epithelial cells, ATCC). Cells were pre-incubated with final concentrations of test compounds for 2 hr and the level of ICAM-1 expression on the cell surface was determined by cell-based ELISA. At a time point 18 hr after poly I:C transfection, cells were fixed with 4% formaldehyde in PBS (100 μL) and then endogenous peroxidase was quenched by the addition of washing buffer (100 μL, 0.05% Tween in PBS: PBS-Tween) containing 0.1% sodium azide and 1% hydrogen peroxide. Cells were washed with wash-buffer (3×200 μL). and after blocking the wells with 5% milk in PBS-Tween (100 μL) for 1 hr, the cells were incubated with anti-human ICAM-1 antibody (50 μL; Cell Signaling Technology, Danvers, Mass.) in 1% BSA PBS overnight at 4° C.
The cells were washed with PBS-Tween (3×200 μL) and incubated with the secondary antibody (100 μL; HRP-conjugated anti-rabbit IgG, Dako Ltd., Glostrup, Denmark). The cells were then incubated with of substrate (50 μL) for 2-20 min, followed by the addition of stop solution (50 μL, 1N H2SO4). The ICAM-1 signal was detected by reading […] the absorbance at 450 nm against a reference wavelength of 655 nm using a spectrophotometer. The cells were then washed with PBS-Tween (3×200 μL) and total cell numbers in each well were determined by reading absorbance at 595 nm after Crystal Violet staining (50 μL of a 2% solution in PBS) and elution by 1% SDS solution (100 μL) in distilled water. The measured OD 450-655 readings were corrected for cell number by dividing with the OD595 reading in each well. The inhibition of ICAM-1 expression was calculated at each concentration of test compound by comparison with vehicle control.

IL-8 [2] = test: Rhinovirus-induced IL-8 release in BEAS2B cells; type: cell-based; details: Homo sapiens, BEAS-2B, at 0.04 μg/mL; read-out: HRV IL-8 (BEAS2B) % inhibition
Experimental: Human rhinovirus RV16 was obtained from the American Type Culture Collection (Manassas, Va.). Viral stocks were generated by infecting Hela cells with HRV until 80% of the cells were cytopathic.
BEAS2B cells were infected with HRV at an MOI of 5 and incubated for 2 hr at 33° C. with gentle shaking for to promote absorption. The cells were then washed with PBS, fresh media added and the cells were incubated for a further 72 hr. The supernatant was collected for assay of IL-8 concentrations using a Duoset ELISA development kit (R&D systems, Minneapolis, Minn.). […]

TNFα [3] = test: LPS-induced TNFα release in d-U937 cells; type: cell-based; details: Homo sapiens, dU937, dU937 cells; relative to 10 μg/mL BIRB796; read-out: LPS Induced Release TNFα REC50 (dU937)
Experimental: as §1

TNFα [4] = test: LPS-induced TNFα release in THP-1 cells; type: cell-based; details: Homo sapiens, THP-1, THP1 cells
Experimental: THP-1 cells, a human monocytic cell line, were stimulated with 3 μg/mL of LPS (from E. Coli; 0111:B4, Sigma) for 4 hr and the supernatant collected for determination of the TNFα concentration by sandwich ELISA (Duo-set, R&D systems). The inhibition of TNFα production was calculated at each concentration by comparison with vehicle control.

HRV16 = HRV16 induced CPE in MRC5 cells; type: cell-based; details: Human rhinovirus sp., HRV16, MRC5, at 0.04 μg/mL; read-out: HRV CPE (MRC5) % inhibition
Experimental: The supernatants were aspirated, and then fresh media added followed by incubation for 4 days. Where appropriate, cells were pre-incubated with compound or DMSO for 2 hr, and the compounds and DMSO added again after washout of the virus.
The percentage inhibition for each well was calculated. The IC50 value was calculated from the concentration-response curve generated by the serial dilutions of the test compounds.

PBMC = test: Cell mitosis assay; type: cell-based; details: Homo sapiens, read-out: Mitosis Assay % inhibition in PBMC Cells at concn 5 μg/mL
Experimental: Peripheral blood mononucleocytes (PBMCs) from healthy subjects were separated from whole blood (Quintiles, London, UK) using a density gradient (Histopaque®-1077, Sigma-Aldrich, Poole, UK). The PBMCs (3 million cells per sample) were subsequently treated with 2% PHA (Sigma-Aldrich, Poole, UK) for 48 hr, followed by a 20 hr exposure to varying concentrations of test compounds. At 2 hr before collection, PBMCs were treated with demecolcine (0.1 μg/mL; Invitrogen, Paisley, UK,) to arrest cells in metaphase. To observe mitotic cells, PBMCs were permeabilised and fixed by adding Intraprep (50 μL; Beckman Coulter, France), and stained with anti-phospho-histone 3 ([…]; #9701; Cell Signalling, Danvers, Mass.) and propidium iodide (1 mg/mL; Sigma-Aldrich, Poole, UK,) as previously described (Muehlbauer P. A. and Schuler M. J., Mutation Research, 2003, 537:117-130). Fluorescence was observed using an ATTUNE flow cytometer (Invitrogen, Paisley, UK), gating for lymphocytes.

RSV A2 = test: In vitro RSV virus load (F-protein ELISA) in primary bronchial epithelial cells; type: cell-based, respiratory syncytical virus; details: human respiratory syncytial virus, Primary bronchial epithelial cell; at 0.04 μg/mL; read-out: RSV (F-Elisa) (HBEC) % inhibition
Experimental: Normal human bronchial epithelial cells (NHBEC) grown in 96 well plates were infected with RSV A2 (Strain A2, HFA, Salisbury, UK) at an MOI of 0.001 in the LHC8 Media:RPMI-1640 (50:50) containing 15 mM magnesium chloride and incubated for 1 hr at 37° C. for adsorption. The cells were then washed with PBS (3×200 μL), fresh media (200 μL) was added and incubation continued for 4 days. Where appropriate, cells were pre-incubated with the compound or DMSO for 2 hr, and then added again after washout of the virus.
The cells were fixed with 4% formaldehyde in PBS solution (50 μL) for 20 min, washed with washing buffer (3×200 μL; PBS including 0.5% BSA and 0.05% Tween-20) and incubated with blocking solution (5% condensed milk in PBS) for 1 hr. Cells were then washed with washing buffer (3×200 μL) and incubated for 1 hr at RT with anti-RSV (2F7) F-fusion protein antibody (40 μL; mouse monoclonal, lot 798760, Cat. No. ab43812, Abcam) in 5% BSA in PBS-tween). After washing, cells were incubated with an HRP-conjugated secondary antibody solution (50 μL) in 5% BSA in PBS-Tween (lot 00053170, Cat.No. P0447, Dako) and then TMB substrate (50 μL; substrate reagent pack, lot 269472, Cat. No. DY999, R&D Systems, Inc.) was added. This reaction was stopped by the addition of 2N H2SO4 (50 μL) and the resultant signal was determined colorimetrically (OD: 450 nm with a reference wavelength of 655 nm) in a microplate reader (Varioskan® Flash, ThermoFisher Scientific).
After washing with washing buffer, 1% SDS in distilled water (100 μL) was added to each well, and plates were shaken lightly on the shaker for 1 hr prior to reading the absorbance at 595 nm. The measured OD450-655 readings were corrected to the cell number by dividing the OD450-655 by the OD595 readings. The percentage inhibition for each well was calculated and the IC50 value was calculated from the concentration-response curve generated from the serial dilutions of compound.

SMILES	IC50 (IL-8 [1]) [nM]	IC50 (ICAM-1) [nM]	inhibition at 0.04 µg/mL (IL-8 [2]) [%]	EC50 (TNFα [3]) [nM]	IC50 (TNFα [4]) [nM]	inhibition at 0.04 µg/mL (HRV16) [%]	inhibition at 5 µg/mL (PBMC) [%]	inhibition at 0.04 µg/mL (RSV A2) [%]
Cc1ccc(-n2nc(C(C)(C)C)cc2NC(=O)Nc2ccc(Oc3ccnc(Nc4ccc(O)c(F)c4)n3)c3ccccc23)cc1 [Example 29, 1-(3-(tert-butyl)-1-(p-tolyl)-1H-pyrazol-5-yl)-3-(4-((2-((3-fluoro-4-hydroxyphenyl)amino)pyrimidin-4-yl)oxy)naphthalen-1-yl)urea]	2.3	2.8	100	11	1.6	13	–	–
Cc1ccc(-n2nc(C(C)(C)C)cc2NC(=O)Nc2ccc(Oc3ccnc(Nc4ccc(Cl)cc4C)n3)c3ccccc23)cc1 [Example 18, 1-(3-(tert-butyl)-1-(p-tolyl)-1H-pyrazol-5-yl)-3-(4-((2-((4-chloro-2-methylphenyl)amino)pyrimidin-4-yl)oxy)naphthalen-1-yl)urea]	15	28	100	13	157	≤ 0	–	–
Cc1ccc(-n2nc(C(C)(C)C)cc2NC(=O)Nc2ccc(Oc3ccnc(Nc4ccc(C)c(O)c4)n3)c3ccccc23)cc1 [Example 26, 1-(3-(tert-butyl)-1-(p-tolyl)-1H-pyrazol-5-yl)-3-(4-((2-((3-hydroxy-4-methylphenyl)amino)pyrimidin-4-yl)oxy)naphthalen-1-yl)urea]	6.6	8.4	100	4.1	1.9	69	–	–
COc1ccccc1Nc1nccc(Oc2ccc(NC(=O)Nc3cc(C(C)(C)C)nn3-c3ccc(C)cc3)c3ccccc23)n1 [Example 5, 1-(3-(tert-butyl)-1-(p-tolyl)-1H-pyrazol-5-yl)-3-(4-((2-((2-methoxyphenyl)amino)pyrimidin-4-yl)oxy)naphthalen-1-yl)urea]	6.2	17	49	2.9	66	91	–	–
Cc1ccc(-n2nc(C(C)(C)C)cc2NC(=O)Nc2ccc(Oc3ccnc(Nc4ccc(Cl)cc4)n3)c3ccccc23)cc1 [Example 16, 1-(3-(tert-butyl)-1-(p-tolyl)-1H-pyrazol-5-yl)-3-(4-((2-((4-chlorophenyl)amino)pyrimidin-4-yl)oxy)naphthalen-1-yl)urea]	0.31	36	100	1.1	4.1	10	–	–
Cc1ccc(-n2nc(C(C)(C)C)cc2NC(=O)Nc2ccc(Oc3ccnc(Nc4ccc(O)cc4C)n3)c3ccccc23)cc1 [Example 24, 1-(3-(tert-butyl)-1-(p-tolyl)-1H-pyrazol-5-yl)-3-(4-((2-((4-hydroxy-2-methylphenyl)amino)pyrimidin-4-yl)oxy)naphthalen-1-yl)urea]	86	5	100	2.3	0.8	41	–	–
Cc1ccc(-n2nc(C(C)(C)C)cc2NC(=O)Nc2ccc(Oc3ccnc(Nc4ccc(O)cc4)n3)c3ccccc23)cc1 [Example 9, 1-(3-(tert-butyl)-1-(p-tolyl)-1H-pyrazol-5-yl)-3-(4-((2-((4-hydroxyphenyl)amino)pyrimidin-4-yl)oxy)naphthalen-1-yl)urea]	2.2	3	100	1.7	1.3	100	50.3	–
Cc1ccc(-n2nc(C(C)(C)C)cc2NC(=O)Nc2ccc(Oc3ccnc(Nc4ccc(F)cc4)n3)c3ccccc23)cc1 [Example 23, 1-(3-(tert-butyl)-1-(p-tolyl)-1H-pyrazol-5-yl)-3-(4-((2-((4-fluorophenyl)amino)pyrimidin-4-yl)oxy)naphthalen-1-yl)urea]	22	–	100	8	24	18	–	41
Cc1ccc(-n2nc(C(C)(C)C)cc2NC(=O)Nc2ccc(Oc3ccnc(Nc4ccccc4C)n3)c3ccccc23)cc1 [Example 21, 1-(3-(tert-butyl)-1-(p-tolyl)-1H-pyrazol-5-yl)-3-(4-((2-(o-tolylamino)pyrimidin-4-yl)oxy)naphthalen-1-yl)urea]	> 1680	–	100	9.7	17	3	–	66
